In patent US11974574B2, “Compositions and related methods for modulating endosymbionts” (Flagship Pioneering Innovations V, Inc., priority 2017, dated 2024):

What was measured:
Aphids LSR-1, A. pisum = assay: BCR-4 PNA microinjection, aphid survival and fecundity; type: in vivo
Procedure: (§1) Microinjection was performed using NanoJet III Auto-Nanoliter Injector with an in-house pulled borosilicate needle (Drummond Scientific; Cat #3-000-203-G/XL). Aphids were transferred using a paint brush to a tubing system connected to vacuum which held them in place during the injection. The injection site was at the ventral thorax of the aphid. The injection solutions were water (negative control) or 321 ng/μl of BCR-4 PNA in water. The injection volume was 20 nl for adult (4th and 5th instar) aphids at a rate of 2 nl/sec. Each treatment group had approximately the same number of individuals injected from each of the collection plants. After injection, aphids were released into a petri dish onto fava bean leaves that had stems in an Eppendorf tube filled with 1 ml water. Survival and fecundity were monitored over the course of the experiment.
(§2) Aphids LSR-1 (which harbor only Buchnera), A. pisum were grown on fava bean plants (Vroma Vicia faba from Johnny's Selected Seeds) in a climate-controlled incubator (16 h light/8 h dark photoperiod; 60±5% RH; 25±2° C.). […]
The number of offspring produced from aphids in each treatment group was also assessed during the experiment and fecundity was represented as the number of offspring produced per adult at each time point assessed. […]

Buchnera = assay: BCR-4 PNA leaf perfusion, Buchnera/aphid copies by qPCR; type: in vivo; settings: dead aphids collected 5 and 6 days post-treatment, water approximately 20
Procedure: After 5 and 6 days of treatment, DNA was extracted from dead aphids from each treatment group. Briefly, the aphid body surface was sterilized by dipping the aphid into a 6% bleach solution for approximately 5 seconds. Aphids were then rinsed in sterile water and DNA was extracted from each individual aphid using a DNA extraction kit (Qiagen, DNeasy kit) according to manufacturer's instructions. DNA concentration was measured using a nanodrop nucleic acid quantification, and Buchnera and aphid DNA copy numbers were measured by qPCR. The primers used for Buchnera were Buch_groES_18F ([…]; SEQ ID NO: 101) and Buch_groES_98R ([…]; SEQ ID NO: 102) (Chong and Moran, 2016 PNAS). The primers used for aphid were ApEF1a 107F ([…]; SEQ ID NO: 103) and ApEF1a 246R ([…]; SEQ ID NO: 104) (Chong and Moran, 2016 PNAS). qPCR was performed using a qPCR amplification ramp of 1.6 degrees C./s and the following conditions: 1) 95° C. for 10 minutes, 2) 95° C. for 15 seconds, 3) 55° C. for 30 seconds, 4) repeat steps 2-3 40×, 5) 95° C. for 15 seconds, 6) 55° C. for 1 minute, 7) ramp change to 0.15 degrees C./s, 8) 95° C. for 1 second. qPCR data was analyzed using analytic (Thermo Fisher Scientific, QuantStudio Design and Analysis) software. […]

[1] = test system: Aphids (LSR-1 strain, Acyrthosiphon pisum); assay: BCR-4 PNA leaf perfusion, aphid development and survival; type: in vivo; settings: leaf perfusion with 1 uM solution
Procedure: Aphids (LSR-1 strain, Acyrthosiphon pisum) were grown on fava bean plants (Vroma Vicia faba from Johnny's Selected Seeds) in a climate-controlled incubator (16 h light/8 h dark photoperiod; 60±5% RH; 25±2° C.). Prior to being used for aphid rearing, fava bean plants were grown in potting soil at 24° C. with 16 h of light and 8 h of darkness. To limit maternal effects or health differences between plants, 5-10 adults from different plants were distributed among 10 two-week-old plants and allowed to multiply to high density for 5-7 days. For experiments, first and second instar aphids were collected from healthy plants and divided into two different treatment groups: 1) those allowed to feed on leaves perfused with water, and, 2) those allowed to feed on leaves perfused with a BCR-4 PNA solution in water.
For each leaf perfusion, approximately 1 ml of water (negative control) or a 1 uM BCR-4 PNA solution was injected into a fava bean leaf. […] Aphids were monitored daily for survival and dead aphids were removed when they were discovered. In addition, the developmental stage (1st, 2nd, 3rd, 4th, and 5th instar) was determined daily throughout the experiment.
LSR-1 first and second instar aphids were divided into two groups as defined in Leaf Perfusion Experimental Design. Aphids were monitored daily and the number of aphids at each developmental stage was determined. […]

BCR-4 [2] = assay: BCR-4 PNA leaf perfusion, BCR-4 expression by RT-qPCR; type: in vivo, Acyrthosiphon pisum; settings: living aphids after 7 days of treatment, relative to actin
Procedure: After 7 days of treatment, RNA was extracted from the remaining aphids in each treatment group. Briefly, the aphid body surface was sterilized by dipping the aphid into a 6% bleach solution for approximately 5 seconds. Aphids were then rinsed in sterile water and total RNA was extracted from each individual aphid using the RNA extraction kit (Qiagen miRNeasy kit) according to manufacturer's instructions. RNA concentrations were measured using a nanodrop nucleic acid quantification. BCR-4 relative expression was measured by RT-qPCR. The primers used were ApBCR-4F ([…]; SEQ ID NO: 107) and ApBCR-4R ([…]; SEQ ID NO: 108). The internal reference gene primers were for Actin (housekeeping gene). The forward sequence was […]; SEQ ID NO: 109 and the reverse sequence was […]; SEQ ID NO: 110. […] RT-qPCR data was analyzed using analytic (Thermo Fisher Scientific, QuantStudio Design and Analysis) software.
At 7 post-treatment, RNA was extracted from live aphids and RT-pPCR was done as described above (see Microinjection Delivery Experimental Design) to quantify expression of BCR-4. […]

BCR-4 [3] = assay: BCR-4 PNA microinjection, BCR-4 expression by RT-qPCR (Example 18); type: in vivo, A. pisum; settings: microinjection 20 nl of 321 ng/μl; 4th and 5th instar; after 7 days; relative to Actin
Procedure: as §1, §2
After 7 days of treatment, RNA was extracted from the remaining aphids in each treatment group. […] RNA concentrations were measured using a nanodrop nucleic acid quantification. BCR-4 relative expression was measured by RT-qPCR. […] RT-qPCR data was analyzed using analytic (Thermo Fisher Scientific, QuantStudio Design and Analysis) software. […]

With “YGRKKRRQRRR-CGTACAATAATCTCATGG [BCR-4 PNA]” the “survival versus water-injected aphids” value (Aphids LSR-1, A. pisum; microinjection 20 nl of 321 ng/μl, 4th and 5th instar) was “slight decrease in survival”, the “fecundity, average offspring produced per adult” value (Aphids LSR-1, A. pisum; microinjection, at 3 and 7 days post-treatment, water 5 offspring/adult) was 4 offspring/adult and the “mean ratio Buchnera/aphid copies” value (Buchnera) was “approximately 57 Buchnera/aphid copies”. For the same substance, the aphids alive ([1]; day 7, water 53%) was 30%, the “aphids in the 3rd instar stage” value ([1]; first and second instar LSR-1, day 2 post-treatment, water approximately 19%) was 8% and the “median transcript levels of BCR-4, fold lower than water” value (BCR-4 [2]) was “approximately 3 fold”. The “BCR-4 expression, fold higher in water-injected aphids than in treated aphids” value (BCR-4 [3]) was “approximately 2 fold”.
